These results are taken from US5741643A, “Oligonucleotide clamps” (Lynx Therapeutics, Inc., priority 1995, dated 1998).

Data set [1] relates to target polynucleotide 5'-[…]-3' (pol and nef genes of HIV). Description: Melting temperature of oligonucleotide clamp/target polynucleotide complex (260 nm absorption v. temperature curve). Type of data set: binding. To be noted: half maximum of the 260 nm absorption v. temperature curve. On the procedure: Preferably, stability of oligonucleotide clamp/target polynucleotide complexes are determined by way of melting, or strand dissociation, curves. The temperature of fifty percent strand dissociation is taken as the melting temperature, Tm, which, in turn, provides a convenient measure of stability. Tm measurements are typically carried out in a saline solution at neutral pH with target and clamp concentrations at between about 1.0-2.0 μM. Typical conditions are as follows: 150 mM NaCl and 10 mM MgCl2 in a 10 mM sodium phosphate buffer (pH 7.0) or in a 10 mM Tris-HCl buffer (pH 7.0); or like conditions. Data for melting curves are accumulated by heating a sample of the oligonucleotide clamp/target polynucleotide complex from room temperature to about 85°-90° C. As the temperature of the sample increases, absorbance of 260 nm light is monitored at 1° C. intervals, e.g. using a Cary (Australia) model 1E or a Hewlett-Packard (Palo Alto, Calif.) model HP 8459 UV/VIS spectrophotometer and model HP 89100A temperature controller, or like instruments.
The oligonucleotides and oligonucleotide clamps listed in the Table I below were synthesized in accordance with Example 1 for specific binding to the following single stranded or double stranded target polynucleotides:
The melting temperature of the following compounds were determined by computing the half maximum of the 260 nm absorption v. temperature curve, as described above: DL015:39.0° C.; DL014: 58° C.; DL013: 68.0° C.; DL021: 67.5° C.; DL022: 67.5° C.; and control (two unconnected oligonucleotides without binding moieties having sequences: 3'-TTTTCTTTTCCCCCCT-5' and 5'-TTTTC^Me TTTT(C^Me)6-3'): 32.0° C.

Data set [2] deals with HIV (infected ATH8 cells). Description: ATH8 cell assay: inhibition of the cytopathic (lytic) effects of HIV infection on ATH8 cells. Type of data set: cell-based. Conditions: 2 μM and 8 μM. As for the experimental part: (§1) Each of the compounds of Table I were tested in an ATH8 cell assay to assess the inhibition of the cytopathic effects of HIV infection on the ATH8 cells. The ATH8 assay is described in the following reference: Matsukura, pages 285-304 in Antisense RNA and DNA (Wiley-Liss, New York, 1992).
(§2) The cytopathic effect examined in the assay was the lytic effect of HIV and/or drug on the ATH8 cells. A measure of the degree of viral activity is the degree to which cells are lysed at the end of a given time period in culture. Protection against lysis is measured by the size of pellet formed after cells are harvested from culture and centrifuged, as described in the references cited above.
(§3) Curves 1 and 2 illustrate results from positive and negative controls, i.e. curve 1 illustrates the results for uninfected ATH8 cells without drug (negative control) and curve 2 illustrates the results for infected ATH8 cells without drug (positive control). Curves 3 and 4 illustrate results from cultures containing 8 μM of oligonucleotide clamp in infected and uninfected ATH8 cells, respectively. Curves 5 and 6 illustrate results from cultures containing 2 μM of oligonucleotide clamp in infected and uninfected ATH8 cells, respectively.

The test system of the next data set is ATH8 cells. Description: Toxicity to ATH8 cells in the ATH8 cell assay. Type of data set: cell-based. To be noted: 2 μM and 8 μM. As for the experimental part:
as §1, §2, §3

Regarding “5'-CACTTTTCTTTTGGGGGGTCACACTCCCCCCTTTTCTTTTAC-Chol [DL014]”, the melting temperature in data set [1] is 58 °C. Further, the “change in pellet size versus time (FIG. 3), effect in words” value in data set [2] was “clear and positive effect at both concentrations”. Also, the “toxicity (FIG. 3), in words” value with ATH8 cells was “without toxicity”.
In turn, “5'-CACTTTTCTTTTGGGGGGTCACACTCCCCCCTTTTCTTTTAC (chemistry not given here) [DL015]” returned a melting temperature in data set [1] of 39.0 °C.
Same read-out and setting: the same measure for “5'-Chol-CACTTTTCTTTTCCCCCCTCACACACTCCCCCCTTTTCTTTTAC-Chol [DL022]”: 67.5 °C.
The same measure, in the same setting: as for “5'-Chol-CACTTTTCTTTTGGGGGGTCACACTCCCCCCTTTTCTTTTAC-Chol [DL013]”, the figure is 68.0 °C; as for “5'-Chol-TTTTCTTTTCACACTTTTCTTTTGGGGGGTCACACTCCCCCC-Chol [DL021]”, 67.5 °C.
